US10589078B2, “Metallic microneedles” (MICRODERMICS INC., priority 2013, dated 2020)

Assay type: in vitro ADME
Conditions: pig, 3 min, 174 μM
Method: A 500 μm tall prototype nickel microneedle 120 fabricated using the method depicted in FIGS. 1A-1G was used to inject a fluorescent chemotherapeutic drug (doxorubicin) into pigskin. A backing plate of the microneedle was bonded to a drug container that was connected to a conventional syringe via a flexible plastic capillary tube. The syringe was filled with a 174 μM solution of doxorubicin in water. The syringe was placed in a commercial syringe pump system (from KD Scientific™ of Holliston, Mass.). The microneedle 120 was applied to a shaved pigskin sample. The pump was set to push the plunger to generate a constant flow rate of 0.2 μL/minute for 3 minutes. This flow rate was selected based on a study investigating the efficiency of transdermal drug injection using silicon microneedles (U. O. Häfeli, et al., (2009), Biomed. Microdevices, Vol. 11, pp. 943-950) which found an average delivery rate of 0.2 μL/minute through each needle in an injection trial. After the injection, the skin was cleaned and then scanned using confocal microscopy.

Structure (SMILES): COc1cccc2c1C(=O)c1c(O)c3c(c(O)c1C2=O)C[C@@](O)(C(=O)CO)C[C@@H]3O[C@H]1C[C@H](N)[C@H](O)[C@H](C)O1 [doxorubicin]
- depth of penetration of doxorubicin into the skin: approximately 130 μm
